{"source": "BindingDB's records for patent US20250136570", "about": "(Tango Therapeutics, 2025)"}
{"target": "Histone deacetylase 1 (Homo sapiens, UniProt Q13547)", "sequence (Q13547 whole entry)": "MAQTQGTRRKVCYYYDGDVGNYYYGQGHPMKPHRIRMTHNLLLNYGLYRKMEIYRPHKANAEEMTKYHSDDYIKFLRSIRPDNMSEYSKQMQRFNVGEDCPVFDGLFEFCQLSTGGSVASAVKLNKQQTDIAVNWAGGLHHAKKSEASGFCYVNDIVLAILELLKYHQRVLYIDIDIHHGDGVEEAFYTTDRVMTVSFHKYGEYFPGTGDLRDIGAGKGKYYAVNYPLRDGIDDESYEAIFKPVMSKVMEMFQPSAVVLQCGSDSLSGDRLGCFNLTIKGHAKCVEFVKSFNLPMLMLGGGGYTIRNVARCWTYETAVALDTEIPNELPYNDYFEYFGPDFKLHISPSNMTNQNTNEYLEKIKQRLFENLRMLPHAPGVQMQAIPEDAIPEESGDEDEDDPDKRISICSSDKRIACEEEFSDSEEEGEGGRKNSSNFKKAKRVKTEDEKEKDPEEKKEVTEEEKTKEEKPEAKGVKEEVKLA", "test": "HDAC1 & HDAC3 Inhibition Assay", "protocol": "IC50 determination for HDAC1 and HDAC3-Prior to adding reagents, 50 nL/well of compound were added to Proxiplates using an Echo dispenser instrument (Beckman Coulter, CA, US). After addition of compound, 2.5 μL/well of 2× enzyme solution was added and the enzyme was pre-incubated with compound for 3 hours at room temp. (˜22° C.). After the pre-incubation period, the enzyme reaction was initiated by adding 2.5 μL/well of 2× Fluor de Lys substrate solution. The assay reaction was stopped after one hour by adding 5 μl/well of a 0.66× Developer solution containing TSA (3.2 μM). The final product of the enzyme reaction was read using a Spectramax plate reader instrument (Molecular Devices, CA, US) using a fluorescent readout (Ex 360 nm/Em 460 nm). The final enzyme concentrations in the assay buffer for HDAC1 and 3 were 6 and 1.2 nM, respectively. The final Fluor de Lys substrate concentration in the assay buffer was 16 μM for all HDAC enzymes. IC50 values were determined using the following equation:EfreeEo=100(1-11+(1IC50)n)(1)Where Efree and Eo are the free and total amount of HDAC enzyme in the reaction mixture, n is the hill coefficient, I is the free inhibitor concentration, and IC50 is the measure of the potency equivalent to the inhibitor concentration that leads to a 50% occupancy of the total enzyme. Each data was generated in duplicate.", "units": {"IC50": "nM"}}
{"smiles": "Nc1ccc(-c2cccs2)cc1NC(=O)c1ccc(S2(=O)=NCCC2)cc1", "note": "(stereo unspecified) [US20250136570, Compound 126]", "IC50": "< 100"}
{"smiles": "Nc1ccc(-c2ccc(F)s2)cc1NC(=O)c1ccc(S2(=O)=NCCC2)cc1", "note": "(stereo unspecified) [US20250136570, Compound 160]", "IC50": "< 100"}
{"smiles": "Nc1ccc(-c2ccc(F)cc2)cc1NC(=O)c1ccc(S2(=O)=NCCC2)nc1", "note": "(stereo unspecified) [US20250136570, Compound 178]", "IC50": "< 100"}
{"smiles": "Nc1ccc(-c2ccc(F)cc2)cc1NC(=O)c1cc2cc(S3(=O)=NCCC3)ccc2s1", "note": "(stereo unspecified) [US20250136570, Compound 204]", "IC50": "< 100"}
{"smiles": "N=S(=O)(c1ccc(C(=O)Nc2cc(-c3ccc(F)cc3)ccc2N)cc1)c1ccc(Cl)cn1", "note": "(stereo unspecified) [US20250136570, Compound 213]", "IC50": "< 100"}
{"smiles": "Nc1ccc(-c2ccc(F)cc2)cc1NC(=O)c1ccc(S2(=O)=NCCCC2)cc1", "note": "(stereo unspecified) [US20250136570, Compound 243]", "IC50": "< 100"}
